# ChEMBL document CHEMBL1201862, “PubChem BioAssay data set” (2004)
# Calls of active or inactive are those of the source.
# Columns and labels:
# [1] = cytotoxicity toward HCT116 cells – cell-based, CellTiter-Glo luminescence, IC50, dose response (AID 1117332); format: functional; conditions: HCT-116
# [2] = SNU-C1 cell viability reduction, dose response, CellTiter-Glo luminescence (AID 1117323); format: functional, cell-based
# [3] = rise of 2N DNA cells, HeLa – IC50, dose response (AID 1117349); format: functional, cell-based
# [4] = cytotoxicity toward Colo320 cells – cell-based, CellTiter-Glo luminescence, IC50, dose response (AID 1117334); format: functional; conditions: COLO 320
# [5] = RKO cell viability reduction, dose response, CellTiter-Glo luminescence (AID 1117322); format: functional
# [6] = Reduced DLD-1 viability, concentration-response, CellTiter-Glo luminescence (AID 1117352); format: functional
# [7] = CellTiter-Glo luminescence survival assay, SW480 colon tumor line, concentration-response curve, half-maximal inhibitory concentration (AID 1117338); format: functional
# [8] = HCT116 cell viability decrease, GSK3B pretreatment – CellTiter-Glo, IC50, dose response (AID 1117339); format: functional; conditions: HCT-116
# [9] = rise of 4N DNA cells, HeLa – IC50, dose response (AID 1117351); format: functional, cell-based
# [10] = target: E3 ubiquitin-protein ligase Mdm2 (Homo sapiens, UniProt Q00987); assay: MDM2-luc reporter signal enhancers, multi-concentration potency testing, MDM2 ubiquitin-protein ligase inhibitor program, whole-cell format, luminescence detection, 384-well microplate (AID 1394); format: functional;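 also: MDM2 E3 inhibitors raise luminescence so EC50 is for signal enhancement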
# Sequence of E3 ubiquitin-protein ligase Mdm2 (Q00987 whole entry): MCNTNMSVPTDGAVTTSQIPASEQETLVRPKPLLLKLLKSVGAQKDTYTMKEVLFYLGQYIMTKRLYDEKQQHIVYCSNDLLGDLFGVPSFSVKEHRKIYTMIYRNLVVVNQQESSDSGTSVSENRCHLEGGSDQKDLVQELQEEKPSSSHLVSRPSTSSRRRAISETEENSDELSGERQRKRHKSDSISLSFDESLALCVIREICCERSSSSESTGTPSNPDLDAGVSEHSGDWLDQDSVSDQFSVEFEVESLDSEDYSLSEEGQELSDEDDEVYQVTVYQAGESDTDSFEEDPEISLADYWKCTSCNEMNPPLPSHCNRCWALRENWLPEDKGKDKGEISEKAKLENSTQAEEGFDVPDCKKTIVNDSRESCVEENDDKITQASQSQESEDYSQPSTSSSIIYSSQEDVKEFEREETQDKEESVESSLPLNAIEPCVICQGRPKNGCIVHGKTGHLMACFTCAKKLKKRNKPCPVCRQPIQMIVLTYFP
# [11] = HIV-1 Vif–A3G interaction blockers – biochemical, TR-FRET, GST-Vif 1-94, biotin-A3G peptide, dose response retest, primary screen (AID 1117319); format: functional;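 also: TR-FRET signal of purified GST-Vif binding a biotinylated A3G peptide; inhibitors lower the FRET signal by blocking Vif and A3G binding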
# Protein Tat = target: T1, Protein Tat (Human immunodeficiency virus type 1 group M subtype B (isolate HXB2)(HIV-1), UniProt P04608); format: functional;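 also: tat binding to TAR RNA read out by fluorescence polarization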
# T1 sequence (P04608 whole entry): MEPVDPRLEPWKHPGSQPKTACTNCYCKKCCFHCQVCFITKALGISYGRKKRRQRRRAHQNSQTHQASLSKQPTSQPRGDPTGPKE
# Genome polyprotein = Genome polyprotein (dengue virus type 2, UniProt P29990); assay: flavivirus cap methylation enzyme inhibition – biochemical, confirmation dose response, primary screen (AID 588689); format: functional
# Sequence of Genome polyprotein (P29990 2492-3391 limits assumed): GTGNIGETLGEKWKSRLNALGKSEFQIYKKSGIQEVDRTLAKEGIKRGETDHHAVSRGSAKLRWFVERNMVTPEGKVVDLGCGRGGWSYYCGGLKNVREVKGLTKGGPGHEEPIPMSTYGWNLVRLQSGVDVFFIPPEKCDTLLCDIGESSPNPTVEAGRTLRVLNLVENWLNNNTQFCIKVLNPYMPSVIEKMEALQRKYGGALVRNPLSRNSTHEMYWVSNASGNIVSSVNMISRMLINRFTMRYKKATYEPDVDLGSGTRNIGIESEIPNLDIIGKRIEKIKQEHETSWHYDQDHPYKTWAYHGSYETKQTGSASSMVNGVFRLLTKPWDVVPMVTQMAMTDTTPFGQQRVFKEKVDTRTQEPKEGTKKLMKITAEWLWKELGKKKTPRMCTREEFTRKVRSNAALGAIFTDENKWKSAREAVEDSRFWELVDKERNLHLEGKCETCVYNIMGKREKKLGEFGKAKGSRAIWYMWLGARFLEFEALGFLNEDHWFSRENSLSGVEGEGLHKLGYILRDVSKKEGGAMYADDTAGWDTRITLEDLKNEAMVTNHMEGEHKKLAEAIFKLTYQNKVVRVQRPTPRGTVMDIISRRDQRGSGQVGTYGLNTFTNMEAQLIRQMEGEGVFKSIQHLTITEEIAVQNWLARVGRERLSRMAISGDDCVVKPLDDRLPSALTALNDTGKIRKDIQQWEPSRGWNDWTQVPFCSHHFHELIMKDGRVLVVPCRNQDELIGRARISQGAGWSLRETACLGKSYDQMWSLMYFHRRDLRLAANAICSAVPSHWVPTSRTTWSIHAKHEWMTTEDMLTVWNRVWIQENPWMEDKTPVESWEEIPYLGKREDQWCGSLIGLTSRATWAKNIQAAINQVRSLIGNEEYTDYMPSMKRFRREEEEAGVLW
# [12] = viability loss in THP-1 monocytes – THP-1 cells, cytotoxicity control for Vif-APOBEC3G degradation inhibitor project, dose response (AID 1117359); format: functional; conditions: THP-1
# [13] = target: Glucose-6-phosphate 1-dehydrogenase (Homo sapiens, UniProt P11413); assay: inhibition of Homo sapiens G6PD, dose series – biochemical, fluorescence, selectivity assay for P. falciparum G6PD inhibitor project, dose response (AID 504792); format: functional
# Sequence of Glucose-6-phosphate 1-dehydrogenase (P11413 whole entry): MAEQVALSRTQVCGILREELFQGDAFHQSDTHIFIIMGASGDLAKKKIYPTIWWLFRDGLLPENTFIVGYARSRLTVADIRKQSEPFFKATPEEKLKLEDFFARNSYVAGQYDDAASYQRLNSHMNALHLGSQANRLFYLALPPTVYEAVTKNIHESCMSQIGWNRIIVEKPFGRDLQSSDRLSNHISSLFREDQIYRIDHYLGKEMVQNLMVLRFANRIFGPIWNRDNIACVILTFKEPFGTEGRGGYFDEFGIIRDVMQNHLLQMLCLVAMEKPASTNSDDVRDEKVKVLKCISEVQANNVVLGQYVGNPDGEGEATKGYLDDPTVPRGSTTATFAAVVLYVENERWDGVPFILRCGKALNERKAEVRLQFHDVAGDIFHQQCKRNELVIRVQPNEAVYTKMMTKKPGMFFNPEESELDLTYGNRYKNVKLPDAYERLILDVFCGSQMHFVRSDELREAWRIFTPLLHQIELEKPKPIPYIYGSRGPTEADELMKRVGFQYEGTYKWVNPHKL
# ELAV-like protein 1 = ELAV-like protein 1 (Homo sapiens, UniProt Q15717); assay: Identify HuR specific inhibitors.; format: functional
# Sequence of ELAV-like protein 1 (Q15717 whole entry): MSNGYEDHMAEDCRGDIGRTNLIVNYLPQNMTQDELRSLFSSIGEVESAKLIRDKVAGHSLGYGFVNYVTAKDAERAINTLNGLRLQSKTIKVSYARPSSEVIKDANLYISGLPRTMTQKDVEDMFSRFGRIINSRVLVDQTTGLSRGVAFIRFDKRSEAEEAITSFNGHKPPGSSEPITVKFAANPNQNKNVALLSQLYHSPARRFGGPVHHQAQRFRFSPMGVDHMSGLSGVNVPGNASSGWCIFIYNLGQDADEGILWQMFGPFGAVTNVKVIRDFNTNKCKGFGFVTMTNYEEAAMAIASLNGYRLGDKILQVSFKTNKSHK
# Hexokinase HKDC1 = target: T2, Hexokinase HKDC1 (Homo sapiens, UniProt Q2TB90); assay: inhibition of HKDC1 glucose phosphorylation – biochemical, W721R variant, dose response (AID 504729); format: functional
# T2 sequence (Q2TB90 whole entry): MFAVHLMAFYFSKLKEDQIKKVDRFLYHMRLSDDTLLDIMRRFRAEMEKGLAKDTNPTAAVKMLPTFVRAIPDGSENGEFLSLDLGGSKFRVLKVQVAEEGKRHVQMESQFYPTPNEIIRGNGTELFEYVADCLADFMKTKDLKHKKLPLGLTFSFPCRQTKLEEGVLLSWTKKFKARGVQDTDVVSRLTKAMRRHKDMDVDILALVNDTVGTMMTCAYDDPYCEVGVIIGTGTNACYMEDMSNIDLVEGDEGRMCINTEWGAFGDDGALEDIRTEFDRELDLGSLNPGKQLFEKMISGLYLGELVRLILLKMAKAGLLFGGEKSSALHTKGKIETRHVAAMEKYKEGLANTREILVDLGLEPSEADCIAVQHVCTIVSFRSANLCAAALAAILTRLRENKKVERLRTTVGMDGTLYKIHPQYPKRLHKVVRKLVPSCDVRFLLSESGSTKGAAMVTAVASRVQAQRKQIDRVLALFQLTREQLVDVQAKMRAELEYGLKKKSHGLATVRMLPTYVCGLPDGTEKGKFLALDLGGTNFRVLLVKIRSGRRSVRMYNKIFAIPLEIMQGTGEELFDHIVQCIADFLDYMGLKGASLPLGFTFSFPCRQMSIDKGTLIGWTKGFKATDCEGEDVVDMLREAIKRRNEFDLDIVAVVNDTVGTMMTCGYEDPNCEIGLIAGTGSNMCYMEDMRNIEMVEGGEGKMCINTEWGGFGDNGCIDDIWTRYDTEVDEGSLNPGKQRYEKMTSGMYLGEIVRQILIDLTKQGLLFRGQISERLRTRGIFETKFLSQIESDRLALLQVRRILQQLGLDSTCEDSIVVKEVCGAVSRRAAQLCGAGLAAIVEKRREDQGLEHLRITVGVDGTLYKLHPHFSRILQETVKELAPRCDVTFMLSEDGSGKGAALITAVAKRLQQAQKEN
# [14] = target: Glutathione-S-transferase (Schistosoma japonicum, UniProt Q26513); assay: GST-antibody interaction or FRET quenching – biochemical, TR-FRET, artefact control for Vif-APOBEC3G degradation inhibitor project, dose response (AID 1117362); format: functional
# Sequence of Glutathione-S-transferase (Q26513 whole entry): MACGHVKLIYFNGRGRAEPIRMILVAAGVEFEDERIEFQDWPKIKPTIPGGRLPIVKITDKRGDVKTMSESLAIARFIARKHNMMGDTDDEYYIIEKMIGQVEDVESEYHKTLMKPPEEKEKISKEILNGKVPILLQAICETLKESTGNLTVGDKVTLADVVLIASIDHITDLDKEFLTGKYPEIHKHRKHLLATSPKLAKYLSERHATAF
# [15] = target: G-protein coupled receptor 183 (Homo sapiens, UniProt P32249); assay: SAR confirmation of small molecule antagonists of the EBI2 receptor via a luminescent beta-arrestin assa.; format: functional
# Sequence of G-protein coupled receptor 183 (P32249 whole entry): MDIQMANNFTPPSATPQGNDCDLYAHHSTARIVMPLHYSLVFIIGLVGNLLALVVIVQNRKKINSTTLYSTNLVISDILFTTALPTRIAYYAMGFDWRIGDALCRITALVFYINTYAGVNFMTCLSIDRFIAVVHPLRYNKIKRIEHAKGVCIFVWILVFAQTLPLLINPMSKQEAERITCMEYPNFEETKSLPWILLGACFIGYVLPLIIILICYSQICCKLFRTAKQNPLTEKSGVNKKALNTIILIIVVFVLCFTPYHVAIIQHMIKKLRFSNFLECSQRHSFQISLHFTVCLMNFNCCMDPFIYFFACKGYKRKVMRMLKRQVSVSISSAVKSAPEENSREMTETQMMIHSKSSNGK
# [16] = target: Heat shock protein HSP 90-alpha (Homo sapiens, UniProt P07900); format: functional, organism-based
# [17] = viability loss in Vero cells – cytotoxicity control for Vif-APOBEC3G degradation inhibitor project, dose response (AID 1117358); format: functional; conditions: Vero
smiles,measurement,setting,value
O=C1C(I)=CC(=C(c2cc(I)c(O)c(I)c2)c2ccccc2C(=O)O)C=C1I [IODOPHTHALEIN SODIUM],IC50,[1],0.384 µM (active)
same,IC50,[2],3.76 µM (active)
same,IC50,[3],> 10 µM (inactive)
same,IC50,[4],0.312 µM (active)
same,IC50,[5],0.0373 µM (active)
same,IC50,[6],0.0132 µM (active)
same,IC50,[7],0.112 µM (active)
same,IC50,[8],0.054 µM (active)
same,IC50,[9],> 10 µM (inactive)
CCn1c(=O)n(CC(=O)Nc2cc(OC)c(OC)c(OC)c2)c(=O)c2ccccc21,EC50,[10],13.2 µM (not active)
Cc1ccc(CNc2ccc(O)cc2)cc1,IC50,[11],> 50.9 µM (active)
same,IC50,Protein Tat,25.5 µM (inconclusive)
same,IC50,Genome polyprotein,92.5 µM (active)
same,CC50,[12],> 40 µM (active)
same,IC50,[13],> 80 µM (inactive)
COCC(=O)OC1CCn2c1nc1c2C(=O)C(C)=C(NC(C)=O)C1=O (stereo unspecified),IC50,ELAV-like protein 1,17.4 µM (inactive)
same,IC50,Hexokinase HKDC1,2.18 µM (active)
CC[n+]1ccc(C)c2cc(P(=O)(c3ccccc3)c3ccccc3)ccc21,IC50,[14],9.73 µM (active)
O=C(/C=C/c1ccc(F)cc1)N1CCN(S(=O)(=O)c2ccc(F)cc2)CC1,IC50,[15],0.0185 µM (active)
CCCCCCC(=O)N(O)C1CC(=O)N(c2ccc(Br)cc2)C1=O (stereo unspecified),AC50,[16],3.17 µM (active)
same,CC50,[17],> 40 µM (active)
